Laboratory results as given in US11186564B2, “Dual NAV1.2/5HT2a inhibitors for treating CNS disorders” (Sunovion Pharmaceuticals Inc., priority 2016, dated 2021).

Each compound was assayed against T1, recombinant human serotonin receptor 5-HT2A (Homo sapiens, UniProt P28223) (assay: 5-HT2A antagonist Ca2+ assay in CHO-K1 cells (method A aequorin luminescence / method B FLIPR fluorescence)). Settings: 5HT2A IC50, μM, antagonist mode vs EC80 of reference agonist, method A or B.
T1 construct: expressed in transfected cells; method B: loaded with Ca2+ dye
Type: cell-based
Method in brief: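 Method A: CHO-K1 cells co-expressing human 5-HT2A and mitochondrial apoaequorin were given reference agonist at EC80 15 min after compound, with luminescence read. Method B: dye-loaded 5-HT2A CHO-K1 cells were pretreated with compound, then given serotonin at EC80, with FLIPR fluorescence read. IC50s came from nonlinear fits of percent inhibition.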

T1 sequence (P28223 whole entry): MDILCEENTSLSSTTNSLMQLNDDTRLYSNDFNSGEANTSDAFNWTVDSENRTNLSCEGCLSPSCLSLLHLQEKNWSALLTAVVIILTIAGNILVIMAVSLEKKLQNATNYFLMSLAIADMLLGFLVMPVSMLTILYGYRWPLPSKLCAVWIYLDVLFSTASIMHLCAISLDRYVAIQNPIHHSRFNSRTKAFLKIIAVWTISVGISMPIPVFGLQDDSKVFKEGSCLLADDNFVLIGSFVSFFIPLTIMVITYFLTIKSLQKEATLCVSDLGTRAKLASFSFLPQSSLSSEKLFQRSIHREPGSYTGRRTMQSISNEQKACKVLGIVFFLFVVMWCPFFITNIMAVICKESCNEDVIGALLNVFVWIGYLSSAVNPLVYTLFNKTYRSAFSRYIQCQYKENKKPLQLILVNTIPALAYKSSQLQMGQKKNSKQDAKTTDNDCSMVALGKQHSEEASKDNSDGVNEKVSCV

| Structure (SMILES) | IC50 [µM] |
| --- | --- |
| O[C@H](COC1CCCCC1)CN1[C@@H]2CC[C@H]1CN(c1ccc(F)cc1)C2 [Example 289, (S)-1-(cyclohexyloxy)-3-((1R,5S)-3-(4-fluorophenyl)-3,8-diazabicyclo[3.2.1]octan-8-yl)propan-2-ol] | 0.02 |

Same assay, conditions: antagonist mode vs EC80 of reference agonist, method A or B, read-out: 5HT2A IC50

| Structure (SMILES) | IC50 [µM] |
| --- | --- |
| c1ccc2c(c1)CC1(CCN(CC3Cc4cccnc4C3)CC1)O2 (stereo not drawn) [Example 397, 1′-((6,7-dihydro-5H-cyclopenta[b]pyridin-6-yl)methyl)-3H-spiro[benzofuran-2,4′-piperidine]] | 2.76 |
| COc1ccc2c(c1)C(CN1C[C@H]3CC[C@@H]1CN3c1ccccc1)CC2 (single isomer, unassigned) [Compound 314] | > 10 |
| OC(CO[C@H]1CCc2ccccc21)CN1CC[C@H](Oc2cccc(F)c2)C1 (stereo partly drawn) [Example 35, 1-(((S)-2,3-dihydro-1H-inden-1-yl)oxy)-3-((S)-3-(3-fluorophenoxy)pyrrolidin-1-yl)propan-2-ol] | 7.13 |
| c1ccc(N2C[C@@H]3C[C@H]2CCN3CC2COCc3ccccc32)cc1 (stereo partly drawn) [Example 322, (1S,5R)-2-(isochroman-4-ylmethyl)-6-phenyl-2,6-diazabicyclo[3.2.1]octane] | > 3.16 |
| O[C@@H](COC1CCCCC1)CN1CCC[C@@H](Oc2ccc(F)cc2)C1 [Example 267, (R)-1-(cyclohexyloxy)-3-((R)-3-(4-fluorophenoxy)piperidin-1-yl)propan-2-ol] | 10.4 |
| c1ccc(N2C[C@@H]3C[C@H]2CCN3CC2Cc3cccnc3C2)cc1 (stereo partly drawn) [Example 320, 6-(((1S,5R)-6-phenyl-2,6-diazabicyclo[3.2.1]octan-2-yl)methyl)-6,7-dihydro-5H-cyclopenta[b]pyridine] | > 10 |
| c1ccc2c(c1)CC1(CCN(CC3Cc4ccncc4C3)CC1)O2 (stereo not drawn) [Example 398, 1′-((6,7-dihydro-5H-cyclopenta[c]pyridin-6-yl)methyl)-3H-spiro[benzofuran-2,4′-piperidine]] | 9.65 |
| COc1ccc2c(c1)[C@H](CN1C[C@@H]3CC[C@H]1CN3c1ccccc1)CC2 (single isomer, unassigned) [Compound 312] | 0.43 |
| COc1ccccc1OC1CCN(CC2Cc3ccccc3C2)[C@@H](C)C1 (single isomer, unassigned) [Example 148] | 1.44 |
| OC(CO[C@H]1CCc2ccccc21)CN1CCC(Oc2ccc(F)cc2)CC1 (stereo in doubt) [Example 237, (R)-1-(((S)-2,3-dihydro-1H-inden-1-yl)oxy)-3-(4-(4-fluorophenoxy)piperidin-1-yl)propan-2-ol] | 0.6 |
| Fc1ccc(N2CCC3(CCN(CC4Cc5ccncc5C4)C3)C2)cc1 (stereo not drawn) [Example 341, 2-((6,7-dihydro-5H-cyclopenta[c]pyridin-6-yl)methyl)-7-(4-fluorophenyl)-2,7-diazaspiro[4.4]nonane] | 3.12 |
| O[C@H](CO[C@@H]1CCCc2ccccc21)CN1CCN(Cc2ccccc2)CC1 [Example 86, (S)-1-(4-benzylpiperazin-1-yl)-3-(((R)-1,2,3,4-tetrahydronaphthalen-1-yl)oxy)propan-2-ol] | > 16.7 |
| O[C@H](COC1CCCCC1)CN1CC[C@@H]2C[C@H]1CN2c1ccccc1 [Example 326, (S)-1-(cyclohexyloxy)-3-((1S,5R)-6-phenyl-2,6-diazabicyclo[3.2.1]octan-2-yl)propan-2-ol] | > 3.16 |
| OC(CO[C@H]1CCc2ccccc21)CN1CC[C@@H](Oc2cccc(F)c2)C1 (stereo partly drawn) [Example 34, 1-(((S)-2,3-dihydro-1H-inden-1-yl)oxy)-3-((R)-3-(3-fluorophenoxy)pyrrolidin-1-yl)propan-2-ol] | 4.66 |
| OC(CO[C@H]1CCCc2ccccc21)CN1CC[C@@H](Oc2ccc(F)cc2)C1 (stereo partly drawn) [Example 48, 1-((R)-3-(4-fluorophenoxy)pyrrolidin-1-yl)-3-(((S)-1,2,3,4-tetrahydronaphthalen-1-yl)oxy)propan-2-ol] | 2.22 |
| C[C@H]1C[C@]2(CCc3ccccc3O2)CCN1CCN1CCc2ccccc2C1=O [Example 425, 2-(2-((2S,2′S)-2′-methylspiro[chromane-2,4′-piperidin]-1′-yl)ethyl)-3,4-dihydroisoquinolin-1(2H)-one] | 0.12 |
| c1ccc(CCN2C[C@@H]3C[C@H]2CN3c2ccccc2)cc1 [Example 305, (1S,4S)-2-phenethyl-5-phenyl-2,5-diazabicyclo[2.2.1]heptane] | > 14.5 |
| O[C@@H](COC1CCCCC1)CN1CC[C@@H]2C[C@H]1CN2c1ccccc1 [Example 327, (R)-1-(cyclohexyloxy)-3-((1S,5R)-6-phenyl-2,6-diazabicyclo[3.2.1]octan-2-yl)propan-2-ol] | > 3.16 |
| OC(COC1CCCCC1)CN1CCC2(CCCN2c2ccccc2)CC1 (stereo not drawn) [Example 355, 1-(cyclohexyloxy)-3-(1-phenyl-1,8-diazaspiro[4.5]decan-8-yl)propan-2-ol] | > 16.7 |
| c1ccc(N2[C@@H]3C[C@H]2CN(CC2CCc4ccccc42)C3)cc1 (stereo partly drawn) [Example 293, (1R,5S)-3-((2,3-dihydro-1H-inden-1-yl)methyl)-6-phenyl-3,6-diazabicyclo[3.1.1]heptane] | 1.02 |
| O[C@H](COC1CCCCC1)CN1C[C@H]2CC[C@@H](C1)N2c1ccccc1 [Example 300, (S)-1-(cyclohexyloxy)-3-((1R,5S)-8-phenyl-3,8-diazabicyclo[3.2.1]octan-3-yl)propan-2-ol] | > 10 |
| c1ccc(CCN2C[C@H]3CC[C@@H](C2)N3c2ccccc2)cc1 [Example 298, (1R,5S)-3-phenethyl-8-phenyl-3,8-diazabicyclo[3.2.1]octane] | > 11 |
| c1ccc(N2C[C@@H]3C[C@H]2CCN3CC2Cc3ccncc3C2)cc1 (stereo partly drawn) [Example 321, 6-(((1S,5R)-6-phenyl-2,6-diazabicyclo[3.2.1]octan-2-yl)methyl)-6,7-dihydro-5H-cyclopenta[c]pyridine] | > 10 |

Results, then the compound that gave them:

| IC50 [µM] | Structure (SMILES) |
| --- | --- |
| > 10 | CC(C1CCc2ccccc21)N1CCC[C@H](Oc2ccc(F)cc2)C1 (stereo partly drawn) [Example 257, (3S)-1-(1-(2,3-dihydro-1H-inden-1-yl)ethyl)-3-(4-fluorophenoxy) piperidine] |
| > 16.7 | N#Cc1ccc(O[C@@H]2CCN(CCN3CCc4ccccc4C3=O)C2)cc1 [Example 31, (R)-4-((1-(2-(1-oxo-3,4-dihydroisoquinolin-2(1H)-yl)ethyl)pyrrolidin-3-yl)oxy) benzonitrile] |
| 1.81 | Fc1ccc(O[C@@H]2CCCN(CC3COCc4ccccc43)C2)cc1 (stereo partly drawn) [Example 260, (3R)-3-(4-fluorophenoxy)-1-(isochroman-4-ylmethyl)piperidine] |
| 0.12 | CC1(C)Oc2ccccc2C1CN1CCC(Oc2ccc(F)cc2)CC1 (stereo not drawn) [Example 135, 1-((2,2-dimethyl-2,3-dihydrobenzofuran-3-yl)methyl)-4-(4-fluorophenoxy)piperidine] |
| 0.74 | COc1ccc2c(c1)C(CN1CCC(Oc3cccc(C(N)=O)c3)CC1)CC2 (stereo not drawn) [Example 108, 3-((1-((6-methoxy-2,3-dihydro-1H-inden-1-yl)methyl)piperidin-4-yl)oxy)benzamide] |
| 3.76 | O=C1CC2(CN(CC3CCc4ccccc43)C2)Oc2ccccc21 (stereo not drawn) [Example 386, 1-((2,3-dihydro-1H-inden-1-yl)methyl)spiro[azetidine-3,2′-chroman]-4′-one] |
| 2.56 | COc1cccc(O[C@@H]2CCN(CCN3CCc4ccccc4C3=O)C2)c1 [Example 21, (R)-2-(2-(3-(3-methoxyphenoxy)pyrrolidin-1-yl)ethyl)-3,4-dihydroisoquinolin-1(2H)-one] |
| 0.44 | COc1ccc2c(c1)C(CN1CCC(Oc3ccc(C#N)cc3)CC1)CC2 (stereo not drawn) [Example 120, 4-((1-((6-methoxy-2,3-dihydro-1H-inden-1-yl)methyl)piperidin-4-yl)oxy)benzonitrile] |
| 4.04 | COc1ccc2c(c1)C(CN1CCC(Oc3cccc(C#N)c3)CC1)CC2 (stereo not drawn) [Example 110, 3-((1-((6-methoxy-2,3-dihydro-1H-inden-1-yl)methyl)piperidin-4-yl)oxy)benzonitrile] |
| 0.21 | COCc1cccc(OC2CCN(CC3CCc4ccc(OC)cc43)CC2)c1 (stereo not drawn) [Example 111, 1-((6-methoxy-2,3-dihydro-1H-inden-1-yl)methyl)-4-(3-(methoxymethyl)phenoxy)piperidine] |
| 3 | Fc1ccc(O[C@H]2CCN(CC3CCc4ccncc43)C2)cc1 (stereo partly drawn) [Example 6, 7-(((S)-3-(4-fluorophenoxy)pyrrolidin-1-yl)methyl)-6,7-dihydro-5H-cyclopenta[c]pyridine] |
| > 3.16 | COc1ccc2c(c1)C(CN1CCC(Oc3cncnc3)CC1)CC2 (stereo not drawn) [Example 126, 5-((1-((6-methoxy-2,3-dihydro-1H-inden-1-yl)methyl)piperidin-4-yl)oxy)pyrimidine] |
| 1.63 | Fc1ccc(O[C@@H]2CCCN(CCC3CCOc4ccccc43)C2)cc1 (stereo partly drawn) [Example 262, (3R)-1-(2-(chroman-4-yl)ethyl)-3-(4-fluorophenoxy)piperidine] |
| 1.05 | COc1ccccc1CN1CCC2(CCc3ccccc3O2)CC1 [Example 416, l′-(2-methoxybenzyl) spiro[chromane-2,4′-piperidine]] |
| 0.01 | COc1ccccc1O[C@@H]1CCN(CCN2CCc3ccccc3C2=O)[C@@H]1C [Example 20, 2-(2-((2R,3R)-3-(2-methoxyphenoxy)-2-methylpyrrolidin-1-yl)ethyl)-3,4-dihydroisoquinolin-1(2H)-one] |
| 10 | COc1ccc(O[C@H]2CCN(CCN3CCc4ccccc4C3=O)C2)cc1 [Example 28, (S)-2-(2-(3-(4-methoxyphenoxy)pyrrolidin-1-yl)ethyl)-3,4-dihydroisoquinolin-1(2H)-one] |
| 1.85 | O=C1c2ccccc2CCN1CCN1CC[C@H](Oc2ccccn2)C1 [Example 16, (S)-2-(2-(3-(pyridin-2-yloxy)pyrrolidin-1-yl)ethyl)-3,4-dihydroisoquinolin-1(2H)-one] |
| 0.4 | COc1ccccc1O[C@@H]1CCN(CCN2CCc3ccccc3C2=O)[C@H]1C [Example 17, 2-(2-((2S,3R)-3-(2-methoxyphenoxy)-2-methylpyrrolidin-1-yl)ethyl)-3,4-dihydroisoquinolin-1(2H)-one] |
